In PubChem BioAssay AID1963434 (Molecular Pharmacology Branch, DTP, NCI, 2024):

Test system: 755483-174-R-J1-PDC complex spheroid growth, percent test/control
Assay: Anticancer human tumor 755483-174-R-J1-PDC patient-derived rhabdomyosarcoma cell line growth inhibition [Asc]
Conditions: for IC50: curve of first compound; for viability, T/C: stronger effect = lower value
In short: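 Complex solid-tumor spheroids incorporating human endothelial and mesenchymal stem cells received single agents or combinations over half-log dilution ranges anchored to clinical Cmax.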

[1] = second compound 0.03 µM, first compound 0.0316 µM
[2] = second compound 0.03 µM, first compound 0.1 µM
[3] = second compound 0.03 µM, first compound 0.316 µM
[4] = second compound 0.03 µM, first compound 1 µM
[5] = second compound 0.03 µM, first compound 3.16 µM
[6] = second compound 0.03 µM, first compound 10 µM
[7] = second compound 0.0949 µM, first compound 0.0316 µM
[8] = second compound 0.0949 µM, first compound 0.1 µM
[9] = second compound 0.0949 µM, first compound 0.316 µM
[10] = second compound 0.0949 µM, first compound 1 µM
[11] = second compound 0.0949 µM, first compound 3.16 µM
[12] = second compound 0.0949 µM, first compound 10 µM
[13] = second compound 0.3 µM, first compound 0.0316 µM
[14] = second compound 0.3 µM, first compound 0.1 µM
[15] = second compound 0.3 µM, first compound 0.316 µM
[16] = second compound 0.3 µM, first compound 1 µM
[17] = second compound 0.3 µM, first compound 3.16 µM
[18] = second compound 0.3 µM, first compound 10 µM
[19] = second compound 0.949 µM, first compound 0.0316 µM
[20] = second compound 0.949 µM, first compound 0.1 µM
[21] = second compound 0.949 µM, first compound 0.316 µM
[22] = second compound 0.949 µM, first compound 1 µM
[23] = second compound 0.949 µM, first compound 3.16 µM
[24] = second compound 0.949 µM, first compound 10 µM
[25] = second compound 3 µM, first compound 0.0316 µM
[26] = second compound 3 µM, first compound 0.1 µM
[27] = second compound 3 µM, first compound 0.316 µM
[28] = second compound 3 µM, first compound 1 µM
[29] = second compound 3 µM, first compound 3.16 µM
[30] = second compound 3 µM, first compound 10 µM
[31] = second compound 0.03 µM, first compound 0.00316 µM
[32] = second compound 0.03 µM, first compound 0.01 µM
[33] = second compound 0.0949 µM, first compound 0.00316 µM
[34] = second compound 0.0949 µM, first compound 0.01 µM
[35] = second compound 0.3 µM, first compound 0.00316 µM
[36] = second compound 0.3 µM, first compound 0.01 µM
[37] = second compound 0.949 µM, first compound 0.00316 µM
[38] = second compound 0.949 µM, first compound 0.01 µM
[39] = second compound 3 µM, first compound 0.00316 µM
[40] = second compound 3 µM, first compound 0.01 µM
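Note: spheroids exposed to compounds for seven days before readout.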

| Structure (SMILES) | IC50 (second compound 0.03 µM) | IC50 (second compound 0.0949 µM) | IC50 (second compound 0.3 µM) | IC50 (second compound 0.949 µM) | IC50 (second compound 3 µM) | viability, T/C [1] | viability, T/C [2] | viability, T/C [3] | viability, T/C [4] | viability, T/C [7] | viability, T/C [8] | viability, T/C [9] | viability, T/C [10] | viability, T/C [13] | viability, T/C [14] | viability, T/C [15] | viability, T/C [16] | viability, T/C [19] | viability, T/C [20] | viability, T/C [21] | also measured |
| --- | --- | --- | --- | --- | --- | --- | --- | --- | --- | --- | --- | --- | --- | --- | --- | --- | --- | --- | --- | --- | --- |
| C#Cc1c(F)ccc2cc(O)cc(-c3ncc4c(N5CC6CCC(C5)N6)nc(OCC56CCCN5CC(F)C6)nc4c3F)c12 (stereo not given) + CCN1C(C(=O)NC23CCC(C(=O)O)(CC2)CC3)C(c2cccc(Cl)c2F)C2(C(=O)Nc3cc(Cl)ccc32)C12CCCCC2 | 8.79 µM | 9.37 µM | 6.91 µM | 8.9 µM | 7.2 µM | 90.5% | 96.1% | 95.5% | 120% | 135% | 110% | 128% | 121% | 79.4% | 88.4% | 143% | 89.1% | 78.9% | 79.5% | 117% | viability, T/C [5]: 71.8%; viability, T/C [6]: 47.2%; viability, T/C [11]: 59.8%; viability, T/C [12]: 49.4%; viability, T/C [17]: 91.7%; viability, T/C [18]: 30.5%; viability, T/C [22]: 118%; viability, T/C [23]: 88.2%; viability, T/C [24]: 45.7%; viability, T/C [25]: 111%; viability, T/C [26]: 106%; viability, T/C [27]: 116%; viability, T/C [28]: 114%; viability, T/C [29]: 80.6%; viability, T/C [30]: 37.8% |
| C=C(F)C(=O)N1CCN(c2nc(OCC3CCCN3C)nc3c2CCN(c2cccc4cccc(Cl)c24)C3)CC1CC#N (stereo not given) + CCN1C(C(=O)NC23CCC(C(=O)O)(CC2)CC3)C(c2cccc(Cl)c2F)C2(C(=O)Nc3cc(Cl)ccc32)C12CCCCC2 | 2.17 µM | 1.66 µM | 1.43 µM | 1.89 µM | 1.6 µM | 81% | 120% | 91.5% | 89.4% | 91.9% | 93.2% | 83.1% | 66.6% | 82.9% | 106% | 87% | 56.6% | 88.4% | 97.3% | 89.2% | viability, T/C [5]: 30.9%; viability, T/C [6]: 0.12%; viability, T/C [11]: 29.6%; viability, T/C [12]: 0.13%; viability, T/C [17]: 28.5%; viability, T/C [18]: 0.51%; viability, T/C [22]: 69.3%; viability, T/C [23]: 33.8%; viability, T/C [24]: 0.31%; viability, T/C [25]: 79.5%; viability, T/C [26]: 81.7%; viability, T/C [27]: 86.4%; viability, T/C [28]: 65.7%; viability, T/C [29]: 25.3%; viability, T/C [30]: 0.24% |
| C=CC(=O)N1CCN(c2nc(=O)n(-c3c(C)ccnc3C(C)C)c3nc(-c4c(O)cccc4F)c(F)cc23)C(C)C1 (stereo not given) + CCN1C(C(=O)NC23CCC(C(=O)O)(CC2)CC3)C(c2cccc(Cl)c2F)C2(C(=O)Nc3cc(Cl)ccc32)C12CCCCC2 | > 10 µM | > 10 µM | > 10 µM | > 10 µM | > 10 µM | 92.4% | 83.7% | 99.7% | 88.7% | 88.6% | 103% | 82.4% | 97.8% | 80.8% | 80.6% | 85.3% | 103% | 89.1% | 82.7% | 115% | viability, T/C [5]: 99.1%; viability, T/C [6]: 65.7%; viability, T/C [11]: 98.4%; viability, T/C [12]: 78%; viability, T/C [17]: 125%; viability, T/C [18]: 88.8%; viability, T/C [22]: 100%; viability, T/C [23]: 107%; viability, T/C [24]: 83.2%; viability, T/C [25]: 84.4%; viability, T/C [26]: 107%; viability, T/C [27]: 94.5%; viability, T/C [28]: 81.2%; viability, T/C [29]: 76.7%; viability, T/C [30]: 63.4% |
| CNC(C)C(=O)NC1CN(S(=O)(=O)c2cccc(S(=O)(=O)N3CCC4CCC(C(=O)NC(c5ccccc5)c5ccccc5)N4C(=O)C(NC(=O)C(C)NC)C3)c2)CCC2CCC(C(=O)NC(c3ccccc3)c3ccccc3)N2C1=O (stereo not given) + CCN1C(C(=O)NC23CCC(C(=O)O)(CC2)CC3)C(c2cccc(Cl)c2F)C2(C(=O)Nc3cc(Cl)ccc32)C12CCCCC2 | 0.0685 µM | 0.0429 µM | 0.0767 µM | 0.00997 µM | 0.0125 µM | 51.9% | 52% | 39.7% | 36.2% | 51.1% | 40.9% | 43.9% | 32.5% | 56.1% | 39.1% | 46% | 59.5% | 52.6% | 56.2% | 42% | viability, T/C [31]: 80.3%; viability, T/C [32]: 65.6%; viability, T/C [33]: 74.6%; viability, T/C [34]: 64.6%; viability, T/C [35]: 76.7%; viability, T/C [36]: 80.9%; viability, T/C [37]: 92.7%; viability, T/C [38]: 48.8%; viability, T/C [22]: 34.6%; viability, T/C [39]: 51.5%; viability, T/C [40]: 54%; viability, T/C [25]: 38.8%; viability, T/C [26]: 36.8%; viability, T/C [27]: 23.5%; viability, T/C [28]: 54.1% |
| COc1c(OCCCN2CCOCC2)ccc2c3n(c(=NC(=O)c4cnc(N)nc4)nc12)CCN3 + CCN1C(C(=O)NC23CCC(C(=O)O)(CC2)CC3)C(c2cccc(Cl)c2F)C2(C(=O)Nc3cc(Cl)ccc32)C12CCCCC2 | 0.0313 µM | 0.0137 µM | 0.0312 µM | 0.0262 µM | 0.0417 µM | 49.1% | 19.2% | 8.52% | 6.46% | 48.5% | 25.9% | 25.9% | 7.18% | 46.3% | 22.7% | 12.7% | 5.77% | 45.9% | 30.7% | 12.1% | viability, T/C [31]: 70.7%; viability, T/C [32]: 70.5%; viability, T/C [33]: 75.5%; viability, T/C [34]: 39.5%; viability, T/C [35]: 82.1%; viability, T/C [36]: 89.5%; viability, T/C [37]: 75.7%; viability, T/C [38]: 64.9%; viability, T/C [22]: 9.33%; viability, T/C [39]: 53.2%; viability, T/C [40]: 64.1%; viability, T/C [25]: 59.9%; viability, T/C [26]: 21.3%; viability, T/C [27]: 13.8%; viability, T/C [28]: 7.35% |
